Measurements from ChEMBL document CHEMBL4627271, “Design, synthesis and evaluation of new 4-arylthiazole-2-amine derivatives as acetylcholinesterase inhibitors” (Bioorg Med Chem Lett, 2020).
The source made the active and inactive calls. No cut-off for these calls is given here.

Assays:
Cholinesterase = Cholinesterase (Canis lupus familiaris, UniProt P32750); test: Inhibition of dog serum BChE using butrylthiocholine iodide as substrate by spectrophotometry based Ellman's method
Acetylcholinesterase [1] = molecular target: Acetylcholinesterase (Electrophorus electricus, UniProt O42275); test: Inhibition of Electric eel AChE using […] as substrate by spectrophotometry based Ellman's method
Acetylcholinesterase [2] = molecular target: T1, Acetylcholinesterase (Homo sapiens, UniProt P22303); test: Inhibition of AChE (unknown origin)
Acetylcholinesterase [3] = molecular target: T1, Acetylcholinesterase; test: Inhibition of AChE (unknown origin) using […] as substrate incubated for 15 mins by Ellman's method
[4] = Selectivity index, ratio of IC50 for dog serum BChE to IC50 for Electric eel AChE
[5] = molecular target: Acetylcholinesterase (Electrophorus electricus) (UniProt O42275); test: Competitive inhibition of Electric eel AChE using […] as substrate by spectrophotometry based Lineweaver-Burk plot analysis
Chain of Acetylcholinesterase (Electrophorus electricus) (O42275 24-633 limits assumed): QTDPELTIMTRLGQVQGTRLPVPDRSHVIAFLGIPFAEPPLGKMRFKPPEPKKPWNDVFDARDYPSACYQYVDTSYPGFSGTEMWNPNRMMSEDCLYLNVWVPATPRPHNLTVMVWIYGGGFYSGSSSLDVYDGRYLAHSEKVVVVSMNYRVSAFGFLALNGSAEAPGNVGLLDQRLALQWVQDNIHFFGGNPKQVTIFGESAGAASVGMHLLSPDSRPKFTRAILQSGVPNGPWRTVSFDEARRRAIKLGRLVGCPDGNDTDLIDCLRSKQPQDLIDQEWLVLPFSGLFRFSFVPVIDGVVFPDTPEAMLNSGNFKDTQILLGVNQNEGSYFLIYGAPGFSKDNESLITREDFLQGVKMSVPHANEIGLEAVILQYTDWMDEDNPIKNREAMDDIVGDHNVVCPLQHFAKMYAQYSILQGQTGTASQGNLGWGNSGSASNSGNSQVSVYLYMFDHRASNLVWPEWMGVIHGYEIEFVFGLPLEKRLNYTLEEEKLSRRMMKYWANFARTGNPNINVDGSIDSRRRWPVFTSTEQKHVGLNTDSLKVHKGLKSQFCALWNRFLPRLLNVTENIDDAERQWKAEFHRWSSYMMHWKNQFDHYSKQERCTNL

Chain of Cholinesterase (P32750 whole entry): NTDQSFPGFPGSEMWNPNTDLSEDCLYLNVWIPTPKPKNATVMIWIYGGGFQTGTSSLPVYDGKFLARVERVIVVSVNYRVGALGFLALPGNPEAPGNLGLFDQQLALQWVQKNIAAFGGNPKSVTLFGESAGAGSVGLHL
Chain of Acetylcholinesterase (Electrophorus electricus, UniProt O42275) (O42275 whole entry): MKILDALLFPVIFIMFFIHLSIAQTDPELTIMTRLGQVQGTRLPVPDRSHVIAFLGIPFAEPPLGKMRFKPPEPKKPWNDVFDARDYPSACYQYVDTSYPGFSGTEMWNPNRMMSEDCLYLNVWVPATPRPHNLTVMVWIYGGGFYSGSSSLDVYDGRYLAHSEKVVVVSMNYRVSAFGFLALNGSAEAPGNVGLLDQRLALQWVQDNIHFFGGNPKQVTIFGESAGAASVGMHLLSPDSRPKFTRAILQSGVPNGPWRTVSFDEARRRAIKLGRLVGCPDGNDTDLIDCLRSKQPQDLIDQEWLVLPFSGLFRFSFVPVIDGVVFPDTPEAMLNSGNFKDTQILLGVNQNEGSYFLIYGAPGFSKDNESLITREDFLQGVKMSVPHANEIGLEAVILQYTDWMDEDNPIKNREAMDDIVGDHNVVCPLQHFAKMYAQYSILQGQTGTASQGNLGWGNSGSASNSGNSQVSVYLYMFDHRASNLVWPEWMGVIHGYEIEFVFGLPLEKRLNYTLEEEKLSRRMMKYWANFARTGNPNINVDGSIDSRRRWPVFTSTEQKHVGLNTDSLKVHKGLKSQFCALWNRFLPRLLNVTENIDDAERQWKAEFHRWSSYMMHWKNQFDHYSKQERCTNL
T1 sequence (P22303 whole entry): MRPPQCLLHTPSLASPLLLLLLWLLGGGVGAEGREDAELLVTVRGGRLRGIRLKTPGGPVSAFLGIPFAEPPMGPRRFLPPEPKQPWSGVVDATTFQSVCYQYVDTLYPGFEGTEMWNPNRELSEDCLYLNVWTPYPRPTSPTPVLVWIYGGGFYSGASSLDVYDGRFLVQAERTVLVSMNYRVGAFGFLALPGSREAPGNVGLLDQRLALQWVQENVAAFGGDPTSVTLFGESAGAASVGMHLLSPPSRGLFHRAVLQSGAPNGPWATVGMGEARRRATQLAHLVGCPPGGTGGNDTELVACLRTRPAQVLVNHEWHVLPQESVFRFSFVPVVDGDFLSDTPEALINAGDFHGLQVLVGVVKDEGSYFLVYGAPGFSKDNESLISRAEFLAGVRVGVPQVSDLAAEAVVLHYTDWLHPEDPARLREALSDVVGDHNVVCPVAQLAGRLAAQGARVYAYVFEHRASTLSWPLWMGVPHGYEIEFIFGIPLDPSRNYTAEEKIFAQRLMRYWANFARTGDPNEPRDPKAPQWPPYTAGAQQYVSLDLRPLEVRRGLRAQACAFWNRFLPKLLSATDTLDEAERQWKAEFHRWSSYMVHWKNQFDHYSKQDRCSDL

C/C=C1\[C@H]2C=C(C)C[C@]1(N)c1ccc(=O)[nH]c1C2 [HUPERZINE A]
IC50 (Cholinesterase): > 10000 µM

CCN(C)C(=O)Oc1cccc([C@H](C)N(C)C)c1 [RIVASTIGMINE]
IC50 (Cholinesterase): 6.27 µM

COc1ccc(CC(=O)Nc2ncc(-c3ccc(OCCCCSc4ccncc4)cc3)s2)cc1OC
IC50 (Cholinesterase): 14.3 µM | IC50 (Acetylcholinesterase [1]): 5.5 µM

COc1ccc(CC(=O)Nc2ncc(-c3ccc(OCCCCCN4CCCC4)cc3)s2)cc1OC
IC50 (Cholinesterase): 9.85 µM | IC50 (Acetylcholinesterase [1]): 3.34 µM

COc1ccc(C(=O)Nc2ncc(-c3ccc(OCCCN4CCCC4)cc3)s2)cc1OC
IC50 (Cholinesterase): 8.1 µM | IC50 (Acetylcholinesterase [1]): 39.3 µM

COc1ccc(CC(=O)Nc2ncc(-c3ccc(OCCCN4CCCC4)cc3)s2)cc1OC
IC50 (Cholinesterase): 6.89 µM | IC50 (Acetylcholinesterase [1]): 6.51 µM

COc1ccc(CC(=O)Nc2ncc(-c3ccc(OCCCCN4CCN(Cc5ccccc5)CC4)cc3)s2)cc1OC
IC50 (Cholinesterase): 41 µM | IC50 (Acetylcholinesterase [1]): 5.75 µM

COc1ccc(CC(=O)Nc2ncc(-c3ccc(OCCCN4CCCC4)cc3)s2)cc1
IC50 (Cholinesterase): 9.01 µM | IC50 (Acetylcholinesterase [1]): 37.3 µM

COc1ccc(-c2csc(NC(=O)CCN3CCCC3)n2)cc1
IC50 (Acetylcholinesterase [2]): 0.51 µM

COc1ccc(CCC(=O)Nc2nc(-c3cc4ccccc4oc3=O)cs2)cc1OC
IC50 (Acetylcholinesterase [3]): 0.74 µM

COc1ccc(CC(=O)Nc2ncc(-c3ccc(OCCN4CCCC4)cc3)s2)cc1OC
IC50 (Cholinesterase): 23.9 µM | IC50 (Acetylcholinesterase [1]): 6.31 µM

COc1cc(CC(=O)Nc2ncc(-c3ccc(OCCCN4CCCC4)cc3)s2)cc(OC)c1OC
IC50 (Cholinesterase): 17.3 µM | IC50 (Acetylcholinesterase [1]): 7.84 µM

COc1ccc(CC(=O)Nc2ncc(-c3ccc(OCCCCNC4CCN(Cc5ccccc5)CC4)cc3)s2)cc1OC
IC50 (Cholinesterase): 7.23 µM | IC50 (Acetylcholinesterase [1]): 4.24 µM

COc1ccc(CC(=O)Nc2ncc(-c3ccc(OCCCCN4CCCCC4)cc3)s2)cc1OC
IC50 (Cholinesterase): 49.2 µM | IC50 (Acetylcholinesterase [1]): 0.95 µM | Ratio IC50 [4]: 52

COc1ccc(CC(=O)Nc2ncc(-c3ccc(OCCCCN4CCCC4)cc3)s2)cc1OC
IC50 (Cholinesterase): 10.2 µM | IC50 (Acetylcholinesterase [1]): 0.66 µM | Ratio IC50 [4]: 16 | inhibition [5]: Active
